Assay results: ChEMBL document CHEMBL3991601, “The target landscape of clinical kinase drugs” (Science, 2017)
Activity calls are given as the source filed them. On the calls: in the data inactive means no Kd found up to 30 µM.

Assays:
[1] = biological target: T1, RNA cytidine acetyltransferase (Homo sapiens, UniProt Q9H0A0)
T1 sequence (Q9H0A0 whole entry): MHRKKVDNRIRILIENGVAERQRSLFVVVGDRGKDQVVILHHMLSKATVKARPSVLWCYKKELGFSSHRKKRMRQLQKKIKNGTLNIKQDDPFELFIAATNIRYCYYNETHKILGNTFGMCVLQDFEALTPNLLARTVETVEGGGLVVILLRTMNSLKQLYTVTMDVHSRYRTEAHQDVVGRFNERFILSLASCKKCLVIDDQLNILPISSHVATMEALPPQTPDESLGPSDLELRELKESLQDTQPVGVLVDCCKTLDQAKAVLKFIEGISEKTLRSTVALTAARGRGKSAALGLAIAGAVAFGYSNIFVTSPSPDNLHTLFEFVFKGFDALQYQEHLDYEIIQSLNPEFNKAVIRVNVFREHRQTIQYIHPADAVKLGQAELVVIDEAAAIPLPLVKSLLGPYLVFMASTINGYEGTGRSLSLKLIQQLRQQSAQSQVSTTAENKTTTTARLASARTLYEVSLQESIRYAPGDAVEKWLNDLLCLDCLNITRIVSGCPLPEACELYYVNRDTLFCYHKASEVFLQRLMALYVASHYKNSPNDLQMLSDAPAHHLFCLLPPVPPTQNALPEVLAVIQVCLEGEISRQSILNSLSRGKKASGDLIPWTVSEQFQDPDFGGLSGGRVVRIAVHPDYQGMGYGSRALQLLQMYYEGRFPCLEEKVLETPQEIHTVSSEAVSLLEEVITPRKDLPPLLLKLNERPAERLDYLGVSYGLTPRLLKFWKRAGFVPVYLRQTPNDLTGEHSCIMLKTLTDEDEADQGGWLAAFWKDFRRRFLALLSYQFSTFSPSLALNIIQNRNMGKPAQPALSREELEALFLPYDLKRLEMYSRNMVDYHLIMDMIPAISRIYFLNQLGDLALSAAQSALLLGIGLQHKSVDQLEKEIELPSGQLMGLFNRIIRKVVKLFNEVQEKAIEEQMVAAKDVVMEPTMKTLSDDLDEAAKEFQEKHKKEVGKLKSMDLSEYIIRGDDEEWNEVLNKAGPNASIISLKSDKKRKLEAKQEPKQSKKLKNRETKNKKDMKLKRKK

[2] = biological target: T2, Mitogen-activated protein kinase kinase kinase 6 (Homo sapiens, UniProt O95382)
T2 sequence (O95382 whole entry): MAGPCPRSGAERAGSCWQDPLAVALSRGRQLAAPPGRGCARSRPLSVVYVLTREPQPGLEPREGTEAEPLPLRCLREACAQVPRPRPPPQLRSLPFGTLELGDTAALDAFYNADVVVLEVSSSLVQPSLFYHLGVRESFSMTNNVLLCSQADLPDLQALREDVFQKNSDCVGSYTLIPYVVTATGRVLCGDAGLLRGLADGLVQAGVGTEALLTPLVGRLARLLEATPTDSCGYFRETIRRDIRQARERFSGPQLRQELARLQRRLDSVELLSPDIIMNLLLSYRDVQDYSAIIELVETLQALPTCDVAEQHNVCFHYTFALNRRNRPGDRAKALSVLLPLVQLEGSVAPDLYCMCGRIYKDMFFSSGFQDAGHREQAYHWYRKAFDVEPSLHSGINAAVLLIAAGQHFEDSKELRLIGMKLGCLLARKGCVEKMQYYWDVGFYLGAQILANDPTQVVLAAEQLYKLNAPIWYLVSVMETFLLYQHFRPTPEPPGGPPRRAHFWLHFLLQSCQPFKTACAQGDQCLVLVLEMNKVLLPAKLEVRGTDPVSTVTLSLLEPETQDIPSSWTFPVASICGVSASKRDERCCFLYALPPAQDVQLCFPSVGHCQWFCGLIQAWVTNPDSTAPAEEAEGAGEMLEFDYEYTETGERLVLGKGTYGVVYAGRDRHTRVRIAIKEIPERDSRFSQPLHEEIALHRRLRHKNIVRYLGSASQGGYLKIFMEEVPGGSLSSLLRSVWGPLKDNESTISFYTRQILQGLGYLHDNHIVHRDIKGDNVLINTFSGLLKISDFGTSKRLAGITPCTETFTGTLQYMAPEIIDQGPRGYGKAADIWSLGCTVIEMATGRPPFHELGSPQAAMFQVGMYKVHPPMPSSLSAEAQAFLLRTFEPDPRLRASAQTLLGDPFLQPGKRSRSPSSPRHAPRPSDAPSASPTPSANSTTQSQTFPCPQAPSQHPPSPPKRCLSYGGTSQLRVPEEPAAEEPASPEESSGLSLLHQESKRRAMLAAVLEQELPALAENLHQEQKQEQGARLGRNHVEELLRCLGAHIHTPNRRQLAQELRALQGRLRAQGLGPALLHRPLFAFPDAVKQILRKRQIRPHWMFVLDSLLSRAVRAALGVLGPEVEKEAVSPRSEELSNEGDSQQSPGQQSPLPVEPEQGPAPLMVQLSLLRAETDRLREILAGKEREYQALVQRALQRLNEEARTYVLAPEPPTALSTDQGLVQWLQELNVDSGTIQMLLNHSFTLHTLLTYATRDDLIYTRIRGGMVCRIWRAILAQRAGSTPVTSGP

[3] = biological target: T3, Very long-chain specific acyl-CoA dehydrogenase, mitochondrial (Homo sapiens, UniProt P49748)
T3 sequence (P49748 whole entry): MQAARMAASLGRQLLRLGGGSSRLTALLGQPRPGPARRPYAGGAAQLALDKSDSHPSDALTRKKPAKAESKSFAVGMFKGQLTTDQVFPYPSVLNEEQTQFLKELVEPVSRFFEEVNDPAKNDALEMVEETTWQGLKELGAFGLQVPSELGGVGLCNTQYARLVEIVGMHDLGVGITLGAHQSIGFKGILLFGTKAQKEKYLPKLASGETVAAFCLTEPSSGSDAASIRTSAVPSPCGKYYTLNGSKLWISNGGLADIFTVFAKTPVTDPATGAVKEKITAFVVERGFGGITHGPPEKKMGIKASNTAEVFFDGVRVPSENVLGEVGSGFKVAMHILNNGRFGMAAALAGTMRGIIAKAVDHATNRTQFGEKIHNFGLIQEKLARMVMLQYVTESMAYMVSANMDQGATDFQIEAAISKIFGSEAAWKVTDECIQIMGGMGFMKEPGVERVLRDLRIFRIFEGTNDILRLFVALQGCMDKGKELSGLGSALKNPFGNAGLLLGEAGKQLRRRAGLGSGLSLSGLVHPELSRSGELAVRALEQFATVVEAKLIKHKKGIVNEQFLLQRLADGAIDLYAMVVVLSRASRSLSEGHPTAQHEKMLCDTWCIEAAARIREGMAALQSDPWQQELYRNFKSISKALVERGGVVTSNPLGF

Row | SMILES | Kd [1] | Kd [2] | Kd [3]
1 | CN1CCN(c2nc(C3=C(c4c[nH]c5ccccc45)C(=O)NC3=O)c3ccccc3n2)CC1 [SOTRASTAURIN] | > 30 µM (inactive) | > 30 µM (inactive) | > 30 µM (inactive)
2 | NC(=O)c1ccc(N(C(N)=O)c2c(F)cccc2F)nc1-c1ccc(F)cc1F [VX-702] | > 30 µM (inactive) | > 30 µM (inactive) | > 30 µM (inactive)
